Reference: publication PMC8330742, “New benzothieno[2,3-c]pyridines as non-steroidal CYP17 inhibitors: design, synthesis, anticancer screening, apoptosis induction, and in silico ADME profile studies” (Journal of Enzyme Inhibition and Medicinal Chemistry, 2021)
Several values for one entry are separate records, joined by “and”; a condition that tells them apart may be missing. Equal entries are not always repeated.

Experiments:
HS 578 T = test: NCI-60 SRB screen; format: cell-based, human; settings: five dose;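 on IC50: half-maximal inhibitory concentration read as cell viability unlike GI50 net growth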
CYP17 enzyme = CYP17 enzyme ELISA in mice prostate cancer model; format: in vivo; settings: 5 mg/kg i.p., 5 days a week, ELISA of tissue (Mice testis)
Description: (§1) A total of 16 mice from the TRAMP/FVB background ([…], male, average 45 days, average weight […], mice with prostate cancer) were taken and divided into 2 groups with 8 animals in each group. One group of mice was given a drug in 0.2 ml of DMSO and phosphate-buffered saline (1:10) ratio (5 mg/kg body weight, i.p., 5 days a week). The control group animals were treated with 0.2 ml of DMSO and phosphate-buffered saline (1:10) ratio. A total of eight mice, four animals from each group, were examined at 13 weeks of age, and the remaining animals from each group were examined at 20 weeks for prostate tumour development. Treatment was stopped 24 h before killing the animals.
BioSource 2704060 96 assay kit is a sandwich enzyme immunoassay for in vitro quantitative measurement of CYP17 enzyme activity in mouse tissue homogenates, cell lysates, cell culture supernatant, and other biological fluids. Tested tissues were rinsed in ice-cold PBS to remove excess blood and weighed before homogenisation. The tissues were minced and homogenised in fresh lysis buffer with a glass homogeniser. (catalog: IS007, different lysis buffer needs to be chosen based on subcellular location of the target protein) (w:v = 1:20–1:50, e.g. 1 ml lysis buffer is added in 20–50 mg tissue sample) The resulting suspension was sonicated with an ultrasonic cell disrupter till the solution was clarified. The homogenates were centrifuged for 5 min at 10,000 × g, and the supernatant was collected. An Aliquot was assayed and stored at ≤ −20 °C.
The assay sample and standard were incubated together with CYP-HRP conjugate in an appropriate number of microplates pre-coated with an antibody specific for the CYP17 enzyme for 1 h. After the incubation period, the wells were decanted and washed five times. The wells were then incubated with a substrate for the HRP enzyme. […] Colour intensity was measured spectrophotometrically at 450 nm in a microplate reader. […]
Assay procedures: Wells for a standard, blank, and sample were prepared. […] The absorbance was measured immediately at 450 nm.

PC-3 cells = test: Annexin V-FITC apoptosis assay; format: cell-based, human; settings: PC-3, 2.34 µM, 24 h
Description: PC-3 cells were placed in a 6-well plate at 1 × 10^5 conc. of cells per well, then incubated for 24 h. Afterward, the cells were treated with 2.34 µM of compound 5c or (0.1% DMSO) for 24 h, then harvested, washed with PBS, and stained with annexin V-FITC and PI in binding buffer ([…], […], and […] at pH 7.4) for 15 min at room temperature in the dark, then analysed by the flow cytometer.

WI-38 human cell line = test: In vitro cytotoxicity on WI-38 human cell line (MTT); format: cell-based; settings: WI-38 normal human cell line
Description: Cell Line cells were obtained from American Type Culture Collection and were cultured using DMEM (Invitrogen/Life Technologies) supplemented with 10% FBS (Hyclone), 10 µg/ml of insulin (Sigma), and 1% penicillin-streptomycin. All of the other chemicals and reagents were obtained from Sigma or Invitrogen. Plate cells were incubated (cells density 1.2–1.8 × 10,000 cells/well) in a volume of 100 µL complete growth medium and 100 ul of the tested compound per well in a 96-well plate for 24 h before the MTT assay. The cultures were removed from the incubator into a laminar flow hood or other sterile work area followed by the addition of reconstituted MTT in an amount equal to 10% of the culture medium volume, then incubated for an additional 2 h. After the incubation period, cultures were removed from the incubator, and the resulted formazan crystals were dissolved by adding an amount of MTT solubilisation solution [M-8910] equal to the original culture medium volume, then the absorbance at a wavelength of 570 nm was measured. Finally, the IC50 of the tested compound compared to the reference was calculated using GraphPad Prism software.

plasma testosterone = test: Testosterone ELISA assay in mice prostate cancer model; format: in vivo
Description: as §1
The BioVendor mouse/rat testosterone ELISA assay is a competitive immunoassay for the measurement of testosterone in rat and mouse serum or plasma based on the principle of competitive binding. An unknown amount of testosterone present in the sample (plasma or serum) and a known amount of testosterone conjugated to horseradish peroxidase compete for the binding sites of testosterone antiserum coated to the wells of a microplate. The sample was incubated with the microplate for 1 h, then washed four times. The HRP substrate solution was added followed by the stop solution. Colour change has been observed, and the optical density was measured at 450 nm.
Assay procedures: Sufficient number of microplate wells were prepared to accommodate standard and samples in duplicates. The standard, sample, and control (10 µL each) were dispensed with new disposable tips into appropriate wells. Incubation buffer 100 µL was dispensed into each well. Afterward, enzyme conjugate (50 µL) was added to each well and incubated for 60 min at room temperature on a microplate mixer. The content of the wells was discarded, and the wells were rinsed 4 times with diluted wash solution (300 µL per well). The substrate solution (200 µL) was added to each well and incubated in the dark without shaking for 30 min. The reaction was stopped by adding a stop solution (2 N hydrochloric acid solution, 50 µL) to each well. The absorbance of each well was determined at 450 nm.

Work on `N#CC1C(=O)NC(c2ccccc2[N+](=O)[O-])c2sc3c(F)cccc3c21` (stereo not drawn) [Compound 5c, 4-Cyano-8-fluoro-1-(2-nitrophenyl)-1,2-dihydro[1]benzothieno[2,3-c] pyridin-3(4H)-one] yielded a GI50 (HS 578 T; Homo sapiens) of 18.1 µM, an IC50 (HS 578 T; Homo sapiens) greater than 100 µM and a TGI (HS 578 T) of 100 µM. The “CYP17 enzyme aver. conc.” value (CYP17 enzyme) was 15.8 nM and 15.80 nM and 15.80 ± 0.20 nM, the “Apoptosis total (% of cells)” value (PC-3 cells) was 42.55% and the “Early apoptosis (% of cells)” value (PC-3 cells) was 1.66%. For the same molecule, the “Late apoptosis (% of cells)” value (PC-3 cells) was 26.67%, the “Necrosis (% of cells)” value (PC-3 cells) was 14.22% and the “elevation in necrosis vs control” value (PC-3 cells) was 7.68 fold. The “increase in early apoptotic cells vs control” value (PC-3 cells) was 6.64 fold, the “increase in late apoptotic cells vs control” value (PC-3 cells) was 140.36 fold and the “total increase vs control” value (PC-3 cells) was 18.58 fold. The IC50 (WI-38 human cell line) was 34.1 µM, the “potency relative to abiraterone (testosterone inhibition)” value (plasma testosterone) was 1.1 folds and the “Plasma testosterone aver. conc.” value (plasma testosterone; 5 mg/kg i.p., 5 days a week, ELISA, 5 mg/kg) was 12.26 nM and 12.26 ± 0.17 nM.
